Read-outs that look alike come from different tables or passages of the source.
What was measured:
[1] = test system: Serratia marcescens ATCC 8100; test: MIC, 2-fold dilution method in micro-well plate, S. marcescens; format: cell-based; settings: S. marcescens ATCC8100, 37° C., read-out: Minimum Inhibitory Concentration
How it was run: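 Broth microdilution (2-fold series) of hydrochloride salts in water; S. marcescens from overnight BHI culture at 37 °C inoculated to about (10^5-10^6)/2 cfu/ml. MIC read after cultivation at 37 °C.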

[2] = test system: Salmonella typhimurium ATCC 14028; test: MIC, 2-fold dilution method in micro-well plate, S. typhimurium; format: cell-based; settings: Salmonella enterica; S. typhisurium ATCC14028, 37° C.; read-out: Minimum Inhibitory Concentration
How it was run: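 Twofold broth microdilution with overnight BHI culture at 37 °C; inoculum about (10^5-10^6)/2 cfu/ml in wells. Compounds tested as hydrochloride salts from 10 mg/ml aqueous stock; MIC read after incubation at 37 °C.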

[3] = test system: Klebsiella pneumoniae ATCC 13883; test: MIC, 2-fold dilution method in micro-well plate, K. pneumoniae; format: cell-based; settings: ATCC13883, read-out: Minimum Inhibitory Concentration
How it was run: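 Two-fold broth dilution in micro-wells of compound as hydrochloride salt in water. Overnight BHI culture at 37 °C inoculated to about (10^5–10^6)/2 cfu/ml final. MIC read after incubation at 37 °C.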

[4] = test system: Streptococcus faecalis ATCC 29212; test: MIC, 2-fold dilution method in micro-well plate, S. faecalis ATCC 29212; format: cell-based; settings: Enterococcus faecalis; S. faecalis ATCC29212, 37° C.; read-out: Minimum Inhibitory Concentration
How it was run: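 Compounds were tested as hydrochloride salts by 2-fold serial dilution in water in micro-well plates. Final inoculum was about (10^5-10^6)/2 cfu/ml from overnight BHI broth culture. MIC was read after culture at 37° C.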

[5] = LD50, oral, mice; settings: mouse, in vivo
[6] = test system: Streptococcus pneumoniae ATCC 6303; test: MIC, 2-fold dilution method in micro-well plate, S. pneumoniae; format: cell-based; settings: S. pneuinoniae ATCC6303, 37° C., read-out: Minimum Inhibitory Concentration
How it was run: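 MIC by 2-fold serial microdilution of compounds as hydrochloride salts in water, against a BHI-grown overnight culture. Final inoculum was about (10^5–10^6)/2 cfu/ml. Plates were incubated at 37° C before the minimum inhibitory concentration was read.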

[7] = test system: Streptococcus faecalis ATCC 19433; test: MIC, 2-fold dilution method in micro-well plate, S. faecalis ATCC 19433; format: cell-based; settings: Enterococcus faecalis; S. faecalis ATCC19433, 37° C.; read-out: Minimum Inhibitory Concentration
How it was run: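 Broth microdilution (2-fold series) with test compounds as hydrochloride salts in sterile water; overnight BHI culture at 37 °C inoculated to about (10^5-10^6)/2 cfu/ml per well. MIC read after incubation at 37 °C.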

[8] = test system: Enterobacter cloacae; test: MIC, 2-fold dilution method in micro-well plate, E. cloacae; format: cell-based; settings: read-out: Minimum Inhibitory Concentration
[9] = test system: Streptococcus pyrogens ATCC 19615; test: MIC, 2-fold dilution method in micro-well plate, S. pyrogens; format: cell-based; settings: S. pyrogenes ATCC19615, 37° C., read-out: Minimum Inhibitory Concentration
How it was run: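 Inoculum from overnight 37° C brain-heart infusion culture gave roughly (10^5-10^6)/2 cfu/mL per well against two-fold serial dilutions of hydrochloride-salt compound in water. Lowest concentration inhibiting growth after 37° C incubation taken as MIC.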

[10] = test system: Proteus vulgaris ATCC 13315; test: MIC, 2-fold dilution method in micro-well plate, P. vulgaris; format: cell-based
How it was run: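 Two-fold broth dilution in micro-well plates; compounds tested as hydrochloride salts in water. Bacteria from overnight BHI broth culture at 37 °C inoculated to about (10^5–10^6)/2 cfu/ml final; MIC read after incubation at 37 °C.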

[11] = test system: Acinetobacter calcoaceticus; test: MIC, 2-fold dilution method in micro-well plate, A. calcoaceticus; format: cell-based
[12] = test system: Haemophilus influenza ATCC 35056; test: MIC, 2-fold dilution method in micro-well plate, H. influenzae; format: cell-based; settings: H. influenzae ATCC35056, 37° C.; read-out: Minimum Inhibitory Concentration
How it was run: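 MIC by 2-fold broth microdilution; compounds as hydrochloride salts in sterile water (10 mg/ml stock). Overnight BHI culture inoculated at about (10^5-10^6)/2 cfu/ml final; MIC read after cultivation at 37° C.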

[13] = test system: Enterobacter aerogenes ATCC 13048; test: MIC, 2-fold dilution method in micro-well plate, E. aerogenes; format: cell-based; settings: Klebsiella aerogenes
How it was run: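 Two-fold broth microdilution of hydrochloride salts dissolved in sterile water (10 mg/ml stock). Inoculum from overnight BHI culture at 37° C, about (10^5–10^6)/2 cfu/ml final in well. MIC read after incubation at 37° C.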

[14] = test system: Shigella sonnei ATCC 25931; test: MIC, 2-fold dilution method in micro-well plate, S. sonnei; format: cell-based; settings: S. sonnei ATCC25931, 37° C., read-out: Minimum Inhibitory Concentration
How it was run: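 Broth microdilution with 2-fold serial dilutions of compounds as hydrochloride salts in water. Overnight BHI culture of S. sonnei at 37° C added to give about (10^5-10^6)/2 cfu/ml per well. MIC read after incubation at 37° C.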

[15] = test system: Escherichia coli ATCC 25922; test: MIC, 2-fold dilution method in micro-well plate, E. coli; format: cell-based; settings: ATCC25922, read-out: Minimum Inhibitory Concentration
How it was run: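 Broth two-fold microdilution of hydrochloride salts in water against E. coli ATCC 25922 grown overnight in BHI at 37° C. Final inoculum about (10^5 -10^6)/2 cfu/ml; after incubation at 37° C, MIC was recorded.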

[16] = test system: Citrobacter freundii ATCC 8090; test: MIC, 2-fold dilution method in micro-well plate, C. freundii; format: cell-based; settings: ATCC8090, read-out: Minimum Inhibitory Concentration
How it was run: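 Broth 2-fold microdilution; compounds tested as hydrochloride salts in sterile water. Inoculum from overnight BHI broth culture at 37° C., final about (10^5-10^6)/2 cfu/ml per well; MIC read after incubation at 37° C.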

[17] = Pharmacokinetic properties in ICR mouse, oral and subcutaneous, Bio-Assay (Agar well method); format: in vivo; settings: 40 mg/kg, average of four tests; for AUC / Cmax / Tmax / bioavailability / half-life: blood; for dose excreted: urine, read-out: Urine Recovery
Method: The pharmacokinetic properties are tested by orally administrating and subcutaneously injecting a test compound and a substance for control to a ICR Mouse with 22 g±10% weight, drawing blood after 10, 20, 30, 45, 60, 90, 120, 150, 180 and […] and analyzed by Bio-Assay (Agar well method).

[18] = test system: Shigella flexneri ATCC 12022; test: MIC, 2-fold dilution method in micro-well plate, S. flexneri; format: cell-based; settings: S. flexneri ATCC12022, 37° C., read-out: Minimum Inhibitory Concentration
How it was run: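 Two-fold broth dilution in microwell plates; compounds as hydrochloride salts in sterile water. Overnight BHI-broth culture at 37 °C used as inoculum, giving about (10^5–10^6)/2 cfu/ml per well. MIC read after cultivation at 37 °C.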

[19] = test system: Pseudomonas aeruginosa ATCC 27853; test: MIC, 2-fold dilution method in micro-well plate, P. aeruginosa; format: cell-based; settings: P. aerugirnosa ATCC27853, 37° C., read-out: Minimum Inhibitory Concentration
How it was run: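 MIC was recorded after 37° C incubation of bacteria with serial two-fold dilutions of compound. Bacteria came from an overnight 37° C BHI culture; the final inoculum was about (10^5-10^6)/2 cfu/ml. Compounds were tested as hydrochloride salts diluted in sterile water from a 10 mg/ml stock.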

| SMILES | MIC [1] | MIC [2] | MIC [3] | MIC [4] | LD50 [5] | MIC [6] | MIC [7] | MIC [9] | MIC [12] | MIC [14] | MIC [15] | MIC [16] | AUC ([17]; po, P.O) | Cmax ([17]; po, P.O) | Tmax ([17]; po, P.O) | bioavailability ([17]; po, P.O) | half-life ([17]; po, P.O) | AUC ([17]; sc, S.C) | Cmax ([17]; sc, S.C) | Tmax ([17]; sc, S.C) | other results |
| --- | --- | --- | --- | --- | --- | --- | --- | --- | --- | --- | --- | --- | --- | --- | --- | --- | --- | --- | --- | --- | --- |
| CN1CCN(c2cc3c(cc2F)c(=O)c(C(=O)O)cn3-c2ccc(F)cn2)CC1.Cl [Example 18, 1-(5-fluoro-2-pyridyl)-6-fluoro-7-(4-methyl-1-piperazinyl)-1,4-dihydro-4-oxoquinoline-3-carboxylic acid hydrochloride] | 1.25 µg/mL | 1.25 µg/mL | 0.625 µg/mL | 2.5 µg/mL | > 3000 mg/kg | 5 µg/mL | 5 µg/mL | 5 µg/mL | 0.625 µg/mL | 0.625 µg/mL | 0.625 µg/mL | 0.625 µg/mL | 42200 ng·h/mL | 9180 ng/mL | 0.94 h | 68.6% | 3.44 h | 63400 ng·h/mL | 19600 ng/mL | 1 h | MIC [8]: 0.625 µg/mL; MIC ([10]; P. vulgaris ATCC13315, 37° C., read-out: Minimum Inhibitory Concentration): 0.313 µg/mL; MIC ([11]; ATCC8090, read-out: Minimum Inhibitory Concentration): 0.625 µg/mL; MIC ([13]; E. aerogenes ATCC13048, 37° C., read-out: Minimum Inhibitory Concentration): 0.25 µg/mL; half-life ([17]; sc, S.C): 3.15 h; dose excreted ([17]; po, P.O): 28.1%; dose excreted ([17]; sc, S.C): 39.9%; MIC [18]: 0.625 µg/mL; MIC [19]: 1.25 µg/mL |
| CN1CCN(c2nc3c(cc2F)c(=O)c(C(=O)O)cn3-c2ccc(F)cn2)CC1.Cl [Example 13, 1-(5-fluoro-2-pyridyl)-6-fluoro-7-(4-methyl-1-piperazinyl)-1,4-dihydro-4-oxo-1,8-naphthyridine-3-carboxylic acid hydrochloride] | 0.313 µg/mL | 0.313 µg/mL | 0.625 µg/mL | 5 µg/mL | ~1000 mg/kg | 2.5 µg/mL | 5 µg/mL | 5 µg/mL | 0.625 µg/mL | 0.156 µg/mL | 0.156 µg/mL | 0.156 µg/mL | 41000 ng·h/mL | 11500 ng/mL | 1.12 h | 74% | 8.07 h | 55500 ng·h/mL | 8000 ng/mL | 0.81 h | MIC ([8]; E. cloacae ATCC23355 (as in tables), 37° C.): 0.313 µg/mL; MIC ([10]; ATCC13315, read-out: Minimum Inhibitory Concentration): 0.625 µg/mL; MIC ([11]; A. calcoaceticus ATCC8090 (as in tables), 37° C., read-out: Minimum Inhibitory Concentration): 0.313 µg/mL; MIC ([13]; ATCC13048, read-out: Minimum Inhibitory Concentration): 0.625 µg/mL; half-life ([17]; sc, S.C): 11.5 h; dose excreted ([17]; po, P.O): 19.6%; dose excreted ([17]; sc, S.C): 30.8%; MIC [18]: 0.156 µg/mL; MIC [19]: 1.25 µg/mL |
